Results on 29 compounds are retold here after ChEMBL document CHEMBL5154873, “Selective degradation of PARP2 by PROTACs via recruiting DCAF16 for triple-negative breast cancer” (Eur J Med Chem, 2022).

pIC50: −log10 of the molar value. Activity calls are given as the source filed them. No cut-off for these calls is given here.

For assay [1], the system named is MDA-MB-231. Put plainly: Induction of cell cycle arrest in human MDA-MB-231 cells assessed as accumulation at G2/M phase measured after 24 hrs by flow cytometry analysis. It counts as functional, cell-based. Particulars: dose 0.156-1.25 µM, DDE = dose-dependent effect. In general terms: Flow cytometry measures light scatter and fluorescence of single cells or particles in a stream.

Assay [2] deals with MDA-MB-231. As to the kind of experiment: In vivo antitumor activity against human MDA-MB-231 cells xenografted BALB/c mouse assessed as tumor growth inhibition at 100 mg/kg, IG measured after 21 days. Particulars: MDA-MB-231, po, 504 h, time 21 day, read-out: TGI. It counts as functional. Background: Xenograft models place foreign cells or tissue in a host animal.
The test system of assay [3] is MDA-MB-436. Put plainly: Induction of cell cycle arrest in human (BRAC1-/-) MDA-MB-436 cells assessed as accumulation at G2/M phase measured after 48 hrs by flow cytometry analysis. It counts as functional, cell-based. The note with it: dose 0.312-2.5 µM, DDE = dose-dependent effect.
Assay [4] has as its system MDA-MB-231. Put plainly: Antiproliferative activity against wild type human MDA-MB-231 cells assessed as reduction in cell viability incubated for 5 to 10 days by MTT assay. It counts as functional, cell-based. For orientation: Formazan colour is commonly taken as a measure of viable cells.
Assay [5] addresses DDB1- and CUL4-associated factor 16/Poly [ADP-ribose] polymerase 2 (Homo sapiens, UniProt Q9UGN5+Q9NXF7). As to the kind of experiment: Protac activity at DCAF16 E3 ligase/PARP2 in human MDA-MB-231 cells assessed as induction of PARP2 degradation at 1 uM measured after 24 hrs by Western blot analysis. It counts as cell-based.
Assay [6] concerns MDA-MB-468. Put plainly: Antiproliferative activity against human PTEN -/- MDA-MB-468 cells assessed as reduction in cell viability incubated for 5 to 10 days by MTT assay. Type of assay: functional, cell-based.
The test system of assay [7] is MDA-MB-436. Put plainly: Antiproliferative activity against human BRCA1 -/- MDA-MB-436 cells assessed as reduction in cell viability incubated for 5 to 10 days by MTT assay. It counts as functional, cell-based.
Assay [8] has as its system CAPAN-1. As to the kind of experiment: Antiproliferative activity against human BRCA2 -/- CAPAN-1 cells assessed as reduction in cell viability incubated for 5 to 10 days by MTT assay. Type of assay: functional, cell-based.

DDB1- and CUL4-associated factor 16/Poly [ADP-ribose] polymerase 2, sequence (Q9NXF7 whole entry, looked up): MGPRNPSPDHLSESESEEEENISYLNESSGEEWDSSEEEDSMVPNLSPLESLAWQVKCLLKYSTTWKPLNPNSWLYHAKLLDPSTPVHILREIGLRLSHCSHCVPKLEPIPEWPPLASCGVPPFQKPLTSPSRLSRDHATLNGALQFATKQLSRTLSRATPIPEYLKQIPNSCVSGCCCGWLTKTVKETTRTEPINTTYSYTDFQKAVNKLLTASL
DDB1- and CUL4-associated factor 16/Poly [ADP-ribose] polymerase 2, sequence (Q9UGN5 whole entry, looked up): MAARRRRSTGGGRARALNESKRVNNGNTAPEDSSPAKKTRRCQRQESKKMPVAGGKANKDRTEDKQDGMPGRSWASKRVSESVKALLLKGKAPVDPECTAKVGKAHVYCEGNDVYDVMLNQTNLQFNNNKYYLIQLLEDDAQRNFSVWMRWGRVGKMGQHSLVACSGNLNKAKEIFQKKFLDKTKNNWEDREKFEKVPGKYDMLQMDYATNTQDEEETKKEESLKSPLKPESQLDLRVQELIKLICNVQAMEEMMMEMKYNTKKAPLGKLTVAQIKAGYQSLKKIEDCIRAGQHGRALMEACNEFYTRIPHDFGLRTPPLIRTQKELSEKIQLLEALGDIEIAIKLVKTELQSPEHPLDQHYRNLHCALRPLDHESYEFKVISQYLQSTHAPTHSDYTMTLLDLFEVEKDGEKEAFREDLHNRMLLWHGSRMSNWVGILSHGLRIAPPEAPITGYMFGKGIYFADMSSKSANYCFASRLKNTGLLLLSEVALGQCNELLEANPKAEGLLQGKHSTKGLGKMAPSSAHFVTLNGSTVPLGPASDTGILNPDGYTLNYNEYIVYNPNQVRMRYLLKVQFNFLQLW

Turning to `O=C(c1cc(Cc2n[nH]c(=O)c3ccccc23)ccc1F)N1CCN(C(=O)C2CC2)CC1` [OLAPARIB], the Activity entry in assay [1] and in assay [3] was “Dde” throughout. The inhibition in vivo at 100 mg/kg in assay [2] came to 57.8%.
For orientation: pIC50 means the negative decadic logarithm of the IC50, by convention in mol/L. On to `NC(=O)n1nc(Cc2ccc(F)c(C(=O)N3CCN(C(=O)CCC(=O)NCCCCNC(=O)COc4ccc5c(c4)CCCN5C(=O)CCl)CC3)c2)c2ccccc2c1=O`, for which the negative-log IC50 (pIC50) in assay [4] was 5.01; in assay [6], 5.13; in assay [7], 6.09; in assay [8], 5.71. Also, the outcome in assay [5] was Active.
In the case of `O=C(CCC(=O)N1CCN(C(=O)c2cc(Cc3n[nH]c(=O)c4ccccc34)ccc2F)CC1)NCCOCCOCCNC(=O)COc1ccc2c(c1)CCCN2C(=O)CCl`, the negative-log IC50 (pIC50) was 4.89 in assay [4], 5.01 in assay [6], 5.92 in assay [7] and 5.89 in assay [8].
As for `O=C(COc1ccc2c(c1)CCCN2C(=O)CCl)NCCCCCCCCC(=O)N1CCN(C(=O)c2cc(Cc3n[nH]c(=O)c4ccccc34)ccc2F)CC1`, the negative-log IC50 (pIC50) in assay [4] is 5.57; in assay [6] it was 5.77; in assay [7], 7.11; in assay [8] it was 6.82. Moreover, the result in assay [5] was Active.
`O=C(COc1ccc2c(c1)CCCN2C(=O)CCl)NCCCCCCCCCCC(=O)N1CCN(C(=O)c2cc(Cc3n[nH]c(=O)c4ccccc34)ccc2F)CC1`: the pIC50 in assay [4] is 6.09; in assay [6] it was 6.14; in assay [7], 7.60; in assay [8], 7.17. In assay [5], the result was Active.
On to `O=C(COc1ccc2c(c1)CCCN2C(=O)CCl)NCCCC(=O)N1CCN(C(=O)c2cc(Cc3n[nH]c(=O)c4ccccc34)ccc2F)CC1`, for which the negative-log IC50 (pIC50) in assay [4] is less than 4.70; in assay [6], less than 4.70; in assay [7], 6.31; in assay [8], 6.08.
For the compound `O=C(CCC(=O)N1CCN(C(=O)c2cc(Cc3n[nH]c(=O)c4ccccc34)ccc2F)CC1)NCCCCCNC(=O)COc1ccc2c(c1)CCCN2C(=O)CCl`, the pIC50 in assay [4] was 5.62; in assay [6] it was 5.91; in assay [7], 6.54; in assay [8], 6.05. In addition, the result in assay [5] was Active.
On to `O=C(COc1ccc2c(c1)CCCN2C(=O)CCl)NCCCCCCCC(=O)N1CCN(C(=O)c2cc(Cc3n[nH]c(=O)c4ccccc34)ccc2F)CC1`, for which the negative-log IC50 (pIC50) was 5.37 in assay [4], 5.68 in assay [6], 6.96 in assay [7] and 6.92 in assay [8]. In addition, the outcome in assay [5] was Active.
The matching figures for `O=C(CCC(=O)N1CCN(C(=O)c2cc(Cc3n[nH]c(=O)c4ccccc34)ccc2F)CC1)NCCNC(=O)COc1ccc2c(c1)CCCN2C(=O)CCl`: 5.07, 5.21, 5.83, 5.50 and “Active”.
On to `O=C(CCC(=O)N1CCN(C(=O)c2cc(Cc3n[nH]c(=O)c4ccccc34)ccc2F)CC1)NCCCCCCCNC(=O)COc1ccc2c(c1)CCCN2C(=O)CCl`, for which the negative logarithm of the IC50 (pIC50) is 5.21 in assay [4], 5.24 in assay [6], 6.18 in assay [7] and 5.77 in assay [8]. For the same compound, the result in assay [5] was Active.
Consider `O=C(COc1ccc2c(c1)CCCN2C(=O)CCl)NCCCCCCNC(=O)CN1CCN(C(=O)c2cc(Cc3n[nH]c(=O)c4ccccc34)ccc2F)CC1`, for which the pIC50 is 4.91 in assay [4], 4.95 in assay [6], 5.71 in assay [7] and 5.36 in assay [8].
`O=C(COc1ccc2c(c1)CCCN2C(=O)CCl)NCCOCCOCCOCCNC(=O)CN1CCN(C(=O)c2cc(Cc3n[nH]c(=O)c4ccccc34)ccc2F)CC1`: the pIC50 in assay [4] was less than 4.70; in assay [6], less than 4.70; in assay [7], 5.76; in assay [8], 5.46.
`O=C(COc1ccc2c(c1)CCCN2C(=O)CCl)NCCC(=O)N1CCN(C(=O)c2cc(Cc3n[nH]c(=O)c4ccccc34)ccc2F)CC1`: the pIC50 was less than 4.70 in assay [4], less than 4.70 in assay [6], 6.18 in assay [7] and 6.05 in assay [8].
On to `O=C(COc1ccc2c(c1)CCCN2C(=O)CCl)NCCOCCOCCOCCOCCNC(=O)CN1CCN(C(=O)c2cc(Cc3n[nH]c(=O)c4ccccc34)ccc2F)CC1`, for which the negative logarithm of the IC50 (pIC50) in assay [4] is less than 4.70; in assay [6], less than 4.70; in assay [7], 5.30; in assay [8], 5.15.
Take `O=C(COc1ccc2c(c1)CCCN2C(=O)CCl)NCCOCCNC(=O)CN1CCN(C(=O)c2cc(Cc3n[nH]c(=O)c4ccccc34)ccc2F)CC1`: the pIC50 in assay [4] is less than 4.70; in assay [6] it was less than 4.70; in assay [7] it was 5.54; in assay [8], 5.28.
For the compound `O=C(COc1ccc2c(c1)CCCN2C(=O)CCl)NCCOCCOCCNC(=O)CN1CCN(C(=O)c2cc(Cc3n[nH]c(=O)c4ccccc34)ccc2F)CC1`, the pIC50 in assay [4] is less than 4.70; in assay [6], less than 4.70; in assay [7], 5.46; in assay [8] it was 5.12.
`CCC(=O)N1CCCc2cc(OCC(=O)NCCCCCCCCCCC(=O)N3CCN(C(=O)c4cc(Cc5n[nH]c(=O)c6ccccc56)ccc4F)CC3)ccc21`: the pIC50 in assay [4] is 5.51; in assay [6] it was 5.65; in assay [7] it was 7.37; in assay [8], 7.06.
As for `O=C(CCC(=O)N1CCN(C(=O)c2cc(Cc3n[nH]c(=O)c4ccccc34)ccc2F)CC1)NCCCCCCNC(=O)COc1ccc2c(c1)CCCN2C(=O)CCl`, the negative logarithm of the IC50 (pIC50) in assay [4] is 5.25; in assay [6], 5.41; in assay [7] it was 6.46; in assay [8], 6.00. Further, the result in assay [5] was Active.
Consider `O=C(COc1ccc2c(c1)CCCN2C(=O)CCl)NCCOCCOCCOCCn1cc(CCCCC(=O)N2CCN(C(=O)c3cc(Cc4n[nH]c(=O)c5ccccc45)ccc3F)CC2)nn1`, for which the pIC50 was 5.18 in assay [4], 5.09 in assay [6], 6.20 in assay [7] and 5.65 in assay [8].
Turning to `O=C(COc1ccc2c(c1)CCCN2C(=O)CCl)NCC(=O)N1CCN(C(=O)c2cc(Cc3n[nH]c(=O)c4ccccc34)ccc2F)CC1`, the pIC50 is 5.45 in assay [4], 5.23 in assay [6], 7.26 in assay [7] and 6.21 in assay [8].
As to `O=C(CCC(=O)N1CCN(C(=O)c2cc(Cc3n[nH]c(=O)c4ccccc34)ccc2F)CC1)NCCOCCOCCOCCOCCNC(=O)COc1ccc2c(c1)CCCN2C(=O)CCl`, the pIC50 is 4.96 in assay [4], 5.13 in assay [6], 6.11 in assay [7] and 5.71 in assay [8].
Regarding `O=C(CCC(=O)N1CCN(C(=O)c2cc(Cc3n[nH]c(=O)c4ccccc34)ccc2F)CC1)NCCOCCNC(=O)COc1ccc2c(c1)CCCN2C(=O)CCl`, the pIC50 was 5.08 in assay [4], 5.22 in assay [6], 5.83 in assay [7] and 5.55 in assay [8].
As to `O=C(CCC(=O)N1CCN(C(=O)c2cc(Cc3n[nH]c(=O)c4ccccc34)ccc2F)CC1)NCCOCCOCCOCCNC(=O)COc1ccc2c(c1)CCCN2C(=O)CCl`, the pIC50 in assay [4] was 5.01; in assay [6], 5.20; in assay [7], 5.76; in assay [8] it was 5.80.
For `O=C(CCC(=O)N1CCN(C(=O)c2cc(Cc3n[nH]c(=O)c4ccccc34)ccc2F)CC1)NCCCNC(=O)COc1ccc2c(c1)CCCN2C(=O)CCl`, the negative logarithm of the IC50 (pIC50) in assay [4] is 5.14; in assay [6], 5.23; in assay [7], 5.92; in assay [8], 5.73. In addition, the result in assay [5] was Active.
For `O=C(COc1ccc2c(c1)CCCN2C(=O)CCl)NCCCCCC(=O)N1CCN(C(=O)c2cc(Cc3n[nH]c(=O)c4ccccc34)ccc2F)CC1`, the negative logarithm of the IC50 (pIC50) in assay [4] is 5.27; in assay [6] it was 5.33; in assay [7], 6.62; in assay [8] it was 6.41.
In the case of `O=C(COc1ccc2c(c1)CCCN2C(=O)CCl)NCCNC(=O)CN1CCN(C(=O)c2cc(Cc3n[nH]c(=O)c4ccccc34)ccc2F)CC1`, the negative-log IC50 (pIC50) in assay [4] was less than 4.70; in assay [6], 4.87; in assay [7] it was 5.77; in assay [8], 5.48.
The matching figures for `O=C(COc1ccc2c(c1)CCCN2C(=O)CCl)NCCCNC(=O)CN1CCN(C(=O)c2cc(Cc3n[nH]c(=O)c4ccccc34)ccc2F)CC1`: less than 4.70, less than 4.70, 5.57 and 5.47.
Take `O=C(COc1ccc2c(c1)CCCN2C(=O)CCl)NCCCCC(=O)N1CCN(C(=O)c2cc(Cc3n[nH]c(=O)c4ccccc34)ccc2F)CC1`: the negative-log IC50 (pIC50) in assay [4] was less than 4.70; in assay [6], 5.14; in assay [7] it was 6.24; in assay [8] it was 6.10.
For `O=C(COc1ccc2c(c1)CCCN2C(=O)CCl)NCCCCNC(=O)CN1CCN(C(=O)c2cc(Cc3n[nH]c(=O)c4ccccc34)ccc2F)CC1`, the negative logarithm of the IC50 (pIC50) in assay [4] was 4.93; in assay [6], 5.04; in assay [7], 5.74; in assay [8] it was 5.57.
